# Reference: patent publication US20100298141A1, “SUBSTITUTED PYRIDINE N-OXIDE HERBICIDES” (E. I. DU PONT DE NEMOURS AND COMPANY, priority 2007, published 2010)
# Experiments:
# giant foxtail [1] = assay: Test C pre-/postemergence test; format: in vivo, Setaria faberii; conditions: for Plant response rating, Foxtail, Giant: 31 g ai/ha, scale 0 to 100 (0 no effect, 100 complete control)
# Method in brief: (§1)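 Test chemicals were formulated with surfactant in a non-phytotoxic solvent and sprayed both on freshly planted seeds (preemergence) and on 1- to 4-leaf plants of 2–18 cm (postemergence). Flooded-paddy pots received compound directly into 3 cm of standing water, maintained for the test.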
# corn = assay: Test A pre-/postemergence greenhouse test; format: in vivo, Zea mays; conditions: for Plant response rating, Corn: 0 to 100 scale where 0 is no effect and 100 is complete control; for Corn plant response rating: 0 to 100 scale
# Method in brief: (§2)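 Pots of loam–sand soil sown with the test species are sprayed preemergence on the soil surface; emerged seedlings (1–2 leaves, 2–10 cm) are sprayed postemergence at the same time. The vehicle is a non-phytotoxic solvent mixture with surfactant. Injury is scored visually after ~10 d in greenhouse.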
# rice = assay: Test C flooded paddy test; format: in vivo, Oryza sativa; conditions: Flood
# Method in brief: (§3)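 Greenhouse pots flooded to 3 cm above soil at time of treatment received compound via the water, which stayed at that level.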
# crabgrass = assay: Test C pre-/postemergence test; format: in vivo, Digitaria sanguinalis; conditions: for Plant response rating, Crabgrass, Large: 31 g ai/ha, scale 0 to 100 (0 no effect, 100 complete control)
# Method in brief: as §1
# barnyardgrass = assay: Test C flooded paddy test; format: in vivo, Echinochloa crus-galli; conditions: Flood
# Method in brief: as §3
# giant foxtail [2] = assay: Test A pre-/postemergence greenhouse test; format: in vivo, Setaria faberi; conditions: for Plant response rating, Foxtail, Giant: 0 to 100 scale where 0 is no effect and 100 is complete control; for Foxtail, Giant plant response rating: 0 to 100 scale
# Method in brief: as §2
# pigweed = assay: Test C pre-/postemergence test; format: in vivo, Amaranthus retroflexus; conditions: for Plant response rating, Pigweed: 31 g ai/ha, scale 0 to 100 (0 no effect, 100 complete control)
# Method in brief: as §1
# wheat = assay: Test A pre-/postemergence greenhouse test; format: in vivo, Triticum aestivum; conditions: for Plant response rating, Wheat: 0 to 100 scale where 0 is no effect and 100 is complete control; for Wheat plant response rating: 0 to 100 scale
# Method in brief: as §2
# Surinam grass = assay: Test C pre-/postemergence test; format: in vivo, Brachiaria decumbens; conditions: for Plant response rating, Surinam Grass: 31 g ai/ha, scale 0 to 100 (0 no effect, 100 complete control)
# Method in brief: as §1
# downy brome = assay: Test C pre-/postemergence test; format: in vivo, Bromus tectorum; conditions: for Plant response rating, Bromegrass, Downy: 31 g ai/ha, scale 0 to 100 (0 no effect, 100 complete control)
# Method in brief: as §1
# velvetleaf = assay: Test A pre-/postemergence greenhouse test; format: in vivo, Abutilon theophrasti; conditions: for Plant response rating, Velvetleaf: 0 to 100 scale where 0 is no effect and 100 is complete control; for Velvetleaf plant response rating: 0 to 100 scale
# Method in brief: as §2
# johnsongrass = assay: Test C pre-/postemergence test; format: in vivo, Sorghum halepense; conditions: for Plant response rating, Johnsongrass: 31 g ai/ha, scale 0 to 100 (0 no effect, 100 complete control)
# Method in brief: as §1
# soybean = assay: Test C pre-/postemergence test; format: in vivo, Glycine max
# Method in brief: as §1
# lambsquarters = assay: Test C pre-/postemergence test; format: in vivo, Chenopodium album; conditions: for Plant response rating, Lambsquarters: 31 g ai/ha, scale 0 to 100 (0 no effect, 100 complete control)
# Method in brief: as §1
# catchweed bedstraw = assay: Test C pre-/postemergence test; format: in vivo, Galium aparine; conditions: for Plant response rating, Galium: 31 g ai/ha, scale 0 to 100 (0 no effect, 100 complete control)
# Method in brief: as §1
# morningglory = assay: Test C pre-/postemergence test; format: in vivo, Ipomoea coccinea; conditions: for Plant response rating, Morningglory: 31 g ai/ha, scale 0 to 100 (0 no effect, 100 complete control)
# Method in brief: as §1
# bermudagrass = assay: Test C pre-/postemergence test; format: in vivo, Cynodon dactylon; conditions: for Plant response rating, Bermudagrass: 31 g ai/ha
# Method in brief: as §1
# [3] = 62 g ai/ha, Preemergence, scale 0 to 100
# [4] = 125 g ai/ha, preemergence, scale 0 (no effect) to 100 (complete control)
# [5] = preemergence, 250 g ai/ha, scale 0 (no effect) to 100 (complete control)
# [6] = Postemergence, 500 g ai/ha, 0 is no effect, 100 is complete control
# [7] = Preemergence, 125 g ai/ha, 0 no effect, 100 complete control
# [8] = 31 g ai/ha, scale 0 to 100 (0 no effect, 100 complete control)
# [9] = 62 g ai/ha, scale 0 to 100, 0 no effect, 100 complete control, 13 to 15 days
# [10] = 125 g ai/ha, scale 0 to 100, 0 no effect, 100 complete control, 13 to 15 days
# [11] = 250 g ai/ha, scale 0 to 100, 0 no effect, 100 complete control, 13 to 15 days
# [12] = 62 g ai/ha, Preemergence, scale 0 to 100 (0 no effect, 100 complete control)
# [13] = Preemergence, scale 0 to 100 (0 no effect, 100 complete control)
# [14] = 62 g ai/ha, scale 0 to 100 (0 no effect, 100 complete control)
smiles,measurement,setting,value
Cn1nc(C(F)(F)F)c(C[S+]([O-])c2ccc(F)c[n+]2[O-])c1Cl (stereo not drawn) [Compound 54],"Foxtail, Giant plant response rating",giant foxtail [1]; [3],98
same,"Foxtail, Giant plant response rating",giant foxtail [1]; [4],100
same,"Plant response rating, Foxtail, Giant",giant foxtail [1]; Preemergence,85
same,"Foxtail, Giant plant response rating",giant foxtail [1]; [5],100
same,"Plant response rating, Corn","corn; Postemergence, 125 g ai/ha",0
same,Corn plant response rating,corn; [6],60
same,Corn plant response rating,corn; [7],20
same,"Plant response rating, Corn","corn; Preemergence, 500 g ai/ha",70
same,"Plant response rating, Rice",rice; [8],0
same,"Plant response rating, Rice",rice; [9],0
same,"Plant response rating, Rice",rice; [10],15
same,"Plant response rating, Rice",rice; [11],40
same,"Crabgrass, Large plant response rating",crabgrass; [3],100
same,"Crabgrass, Large plant response rating",crabgrass; [4],100
same,"Plant response rating, Crabgrass, Large",crabgrass; Preemergence,85
same,"Crabgrass, Large plant response rating",crabgrass; [5],100
same,"Plant response rating, Barnyardgrass",barnyardgrass; [8],0
same,"Plant response rating, Barnyardgrass",barnyardgrass; [9],20
same,"Plant response rating, Barnyardgrass",barnyardgrass; [10],65
same,"Plant response rating, Barnyardgrass",barnyardgrass; [11],80
same,"Plant response rating, Foxtail, Giant","giant foxtail [2]; Postemergence, 125 g ai/ha",60
same,"Foxtail, Giant plant response rating",giant foxtail [2]; [6],80
same,"Foxtail, Giant plant response rating",giant foxtail [2]; [7],80
same,"Plant response rating, Foxtail, Giant","giant foxtail [2]; Preemergence, 500 g ai/ha",90
same,Pigweed plant response rating,pigweed; [3],100
same,Pigweed plant response rating,pigweed; [4],100
same,"Plant response rating, Pigweed",pigweed; Preemergence,0
same,Pigweed plant response rating,pigweed; [5],100
same,"Plant response rating, Wheat","wheat; Postemergence, 125 g ai/ha",30
same,Wheat plant response rating,wheat; [6],50
same,Wheat plant response rating,wheat; [7],10
same,"Plant response rating, Wheat","wheat; Preemergence, 500 g ai/ha",70
same,Surinam Grass plant response rating,Surinam grass; [3],90
same,Surinam Grass plant response rating,Surinam grass; [4],100
same,"Plant response rating, Surinam Grass",Surinam grass; Preemergence,55
same,Surinam Grass plant response rating,Surinam grass; [5],100
same,"Bromegrass, Downy plant response rating",downy brome; [3],0
same,"Bromegrass, Downy plant response rating",downy brome; [4],10
same,"Plant response rating, Bromegrass, Downy",downy brome; Preemergence,0
same,"Bromegrass, Downy plant response rating",downy brome; [5],60
same,"Plant response rating, Velvetleaf","velvetleaf; Postemergence, 125 g ai/ha",10
same,Velvetleaf plant response rating,velvetleaf; [6],70
same,Velvetleaf plant response rating,velvetleaf; [7],30
same,"Plant response rating, Velvetleaf","velvetleaf; Preemergence, 500 g ai/ha",70
same,Johnsongrass plant response rating,johnsongrass; [3],95
same,Johnsongrass plant response rating,johnsongrass; [4],100
same,"Plant response rating, Johnsongrass",johnsongrass; Preemergence,90
same,Johnsongrass plant response rating,johnsongrass; [5],100
same,"Plant response rating, Soybean","soybean; Preemergence, 31 g ai/ha, scale 0 to 100 (0 no effect, 100 complete control)",0
same,Soybean plant response rating,soybean; [5],60
same,Lambsquarters plant response rating,lambsquarters; [3],90
same,Lambsquarters plant response rating,lambsquarters; [4],100
same,"Plant response rating, Lambsquarters",lambsquarters; Preemergence,0
same,Lambsquarters plant response rating,lambsquarters; [5],100
same,Galium plant response rating,catchweed bedstraw; [3],0
same,Galium plant response rating,catchweed bedstraw; [4],85
same,"Plant response rating, Galium",catchweed bedstraw; Preemergence,0
same,Galium plant response rating,catchweed bedstraw; [5],85
same,Morningglory plant response rating,morningglory; [3],100
same,Morningglory plant response rating,morningglory; [4],100
same,"Plant response rating, Morningglory",morningglory; Preemergence,100
same,Morningglory plant response rating,morningglory; [5],100
same,Bermudagrass plant response rating,bermudagrass; [12],100
same,Bermudagrass plant response rating,bermudagrass; [4],100
same,"Plant response rating, Bermudagrass",bermudagrass; [13],98
same,Bermudagrass plant response rating,bermudagrass; [5],100
CCc1cc[n+]([O-])c(S(=O)(=O)Cc2c(C(F)(F)F)nn(C)c2OCC(F)(F)F)c1 [Compound 60],"Foxtail, Giant plant response rating",giant foxtail [1]; [3],100
same,"Foxtail, Giant plant response rating",giant foxtail [1]; [4],100
same,"Plant response rating, Foxtail, Giant",giant foxtail [1]; Preemergence,100
same,"Foxtail, Giant plant response rating",giant foxtail [1]; [5],100
same,"Plant response rating, Corn","corn; Postemergence, 125 g ai/ha",30
same,Corn plant response rating,corn; [6],60
same,Corn plant response rating,corn; [7],0
same,"Plant response rating, Corn","corn; Preemergence, 500 g ai/ha",50
same,"Plant response rating, Rice",rice; [14],0
same,"Plant response rating, Rice",rice; [11],20
same,"Crabgrass, Large plant response rating",crabgrass; [3],100
same,"Crabgrass, Large plant response rating",crabgrass; [4],100
same,"Plant response rating, Crabgrass, Large",crabgrass; Preemergence,100
same,"Crabgrass, Large plant response rating",crabgrass; [5],100
same,"Plant response rating, Barnyardgrass",barnyardgrass; [14],20
same,"Plant response rating, Barnyardgrass",barnyardgrass; [11],45
same,"Plant response rating, Foxtail, Giant","giant foxtail [2]; Postemergence, 125 g ai/ha",60
same,"Foxtail, Giant plant response rating",giant foxtail [2]; [6],90
same,"Foxtail, Giant plant response rating",giant foxtail [2]; [7],100
same,"Plant response rating, Foxtail, Giant","giant foxtail [2]; Preemergence, 500 g ai/ha",100
same,Pigweed plant response rating,pigweed; [3],100
same,Pigweed plant response rating,pigweed; [4],100
same,"Plant response rating, Pigweed",pigweed; Preemergence,100
same,Pigweed plant response rating,pigweed; [5],100
same,"Plant response rating, Wheat","wheat; Postemergence, 125 g ai/ha",50
same,Wheat plant response rating,wheat; [6],60
same,Wheat plant response rating,wheat; [7],50
same,"Plant response rating, Wheat","wheat; Preemergence, 500 g ai/ha",70
same,Surinam Grass plant response rating,Surinam grass; [3],100
same,Surinam Grass plant response rating,Surinam grass; [4],100
same,"Plant response rating, Surinam Grass",Surinam grass; Preemergence,95
same,Surinam Grass plant response rating,Surinam grass; [5],100
same,"Bromegrass, Downy plant response rating",downy brome; [3],55
same,"Bromegrass, Downy plant response rating",downy brome; [4],55
same,"Plant response rating, Bromegrass, Downy",downy brome; Preemergence,0
same,"Bromegrass, Downy plant response rating",downy brome; [5],90
same,"Plant response rating, Velvetleaf","velvetleaf; Postemergence, 125 g ai/ha",60
same,Velvetleaf plant response rating,velvetleaf; [6],70
same,Velvetleaf plant response rating,velvetleaf; [7],70
same,"Plant response rating, Velvetleaf","velvetleaf; Preemergence, 500 g ai/ha",100
same,Johnsongrass plant response rating,johnsongrass; [3],100
same,Johnsongrass plant response rating,johnsongrass; [4],100
same,"Plant response rating, Johnsongrass",johnsongrass; Preemergence,100
same,Johnsongrass plant response rating,johnsongrass; [5],100
same,Soybean plant response rating,soybean; [3],50
same,Soybean plant response rating,soybean; [4],50
same,Soybean plant response rating,soybean; [5],85
same,Lambsquarters plant response rating,lambsquarters; [3],100
same,Lambsquarters plant response rating,lambsquarters; [4],100
same,"Plant response rating, Lambsquarters",lambsquarters; Preemergence,100
same,Lambsquarters plant response rating,lambsquarters; [5],100
same,Galium plant response rating,catchweed bedstraw; [3],100
same,Galium plant response rating,catchweed bedstraw; [4],100
same,"Plant response rating, Galium",catchweed bedstraw; Preemergence,0
same,Galium plant response rating,catchweed bedstraw; [5],100
same,Morningglory plant response rating,morningglory; [3],90
same,Morningglory plant response rating,morningglory; [4],100
same,"Plant response rating, Morningglory",morningglory; Preemergence,50
same,Morningglory plant response rating,morningglory; [5],100
same,Bermudagrass plant response rating,bermudagrass; [12],100
same,Bermudagrass plant response rating,bermudagrass; [4],100
same,"Plant response rating, Bermudagrass",bermudagrass; [13],100
same,Bermudagrass plant response rating,bermudagrass; [5],100
